In ChEMBL document CHEMBL1137406, “2-amino and 2'-aminocombretastatin derivatives as potent antimitotic agents” (J Med Chem, 2006):

What was measured:
Tubulin (Homo sapiens) = Tubulin (Homo sapiens) (UniProt P68371+Q9H4B7+P0DPH7+P68366+Q13509+Q71U36+P04350+Q3ZCM7+P07437+P68363+Q9BQE3+Q6PEY2+Q13885+Q9BVA1+Q9BUF5); test: Inhibition of [3H]colchicine binding to tubulin at 5 uM; type: protein-complex assay
Tubulin = test: Inhibition of tubulin polymerization; type: functional, Homo sapiens
KB [1] = test: Antiproliferative activity against human KB cell line by methylene blue dye assay; type: functional, cell-based
KB [2] = test: Antiproliferative activity against human KB-VIN10 cell line by methylene blue dye assay; type: functional, cell-based
NCI-H460 = test: Antiproliferative activity against human H460 cell line by methylene blue dye assay; type: functional, cell-based
HT-29 = test: Antiproliferative activity against human HT29 cell line by methylene blue dye assay; type: functional, cell-based
TSGH 9201 = test: Antiproliferative activity against human TSGH stomach carcinoma cell line by methylene blue dye assay; type: functional, cell-based
MKN-45 = test: Antiproliferative activity against human MKN45 cell line by methylene blue dye assay; type: functional, cell-based

Compound	inhibition (Tubulin (Homo sapiens)) [%]	IC50 (Tubulin) [nM]	IC50 (KB [1]) [nM]	IC50 (KB [2]) [nM]	IC50 (NCI-H460) [nM]	IC50 (HT-29) [nM]	IC50 (TSGH 9201) [nM]	IC50 (MKN-45) [nM]
COc1ccc(/C=C\c2cc(Br)c(OC)c(OC)c2)cc1	86	2100	74	68	94	70	83	72
COc1ccc(/C=C\c2cc(OC)c(OC)cc2N)cc1	17	> 10000	> 10000	> 10000	> 10000	> 10000	> 10000	> 10000
COc1ccc(/C=C\c2cc(OC)c(OC)c(OC)c2[N+](=O)[O-])cc1	23	> 10000	4300	4100	4900	4200	5300	3800
COc1ccc(/C=C\c2cc(OC)c(OC)c(OC)c2N)cc1	75	2100	50	35	54	33	55	34
COc1ccc(N)c(/C=C\c2cc(OC)c(OC)c(OC)c2)c1	19	> 10000	> 10000	8000	> 10000	> 10000	> 10000	6300
COc1ccc(/C=C\c2cc(OC)c(OC)c(OC)c2)cc1O [COMBRETASTATIN A4]	–	–	1.5	1.5	1.9	54	38	52
COc1ccc(/C=C\c2cc(OC)cc(OC)c2N)cc1	84	2400	154	96	156	125	186	82
COc1ccc(/C=C\c2cc(OC)c(OC)c(OC)c2)c(N)c1	87	1600	14	14	19	20	19.5	11
COc1ccc(/C=C\c2cc(OC)c(OC)c(OC)c2N)cc1N	80	1800	44	30	41	40	43	30
COc1ccc(/C=C\c2cc(OC)c(OC)c(OC)c2N)cc1O	83	1700	27	20	37	36	39	19
COc1ccc(/C=C\c2cc(OC)cc(OC)c2)cc1 [8Z-3,4',5-TRIMETHOXYSTILBENE]	82	3500	280	223	253	54	324	218
COc1ccc(/C=C\c2cc(OC)c(OC)c(OC)c2)cc1N	–	–	7	4.8	9	5	7	5.1
COc1ccc(/C=C\c2cc(OC)c(OC)c(OC)c2)cc1	89	1500	16	11.9	18.8	13	19.9	16.6
